Measured values as given in US11229707B2, “Promoting immune responses” (National Institute of Biological Sciences, Beijing, priority 2018, dated 2022).
Where two headings read alike, the source gives them in different places.

Legend:
alpha-kinase 1 (ALPK1) = alpha-kinase 1 (ALPK1) (Homo sapiens, UniProt Q96QP1); test: ALPK1 activation (kinase domain phosphorylation of TIFA); type: biochemical
[1] = tested on: innate immune responses in mice; test: Mouse dorsal air pouch model of acute inflammation (neutrophil recruitment, multiplex immunoassay for 36 cytokines); type: in vivo; conditions: for proinflammatory cytokines and chemokines in air pouches (IL-6, TNFα, IP-10, MCP-1/3, IFNγ, GM-CSF, MIP-1α and β, RANTES): air-pouch washes, compared with saline control; for neutrophil recruitment into the air pouch: injection into air pouch; for level of GRO-α/KC/CXCL1, IP-10 and MCP-1 in the sera: sera of injected mice
From the text: To investigate whether ADP-Hep alone could stimulate innate immune responses in vivo, a mouse dorsal air pouch model established to assess acute inflammation was employed (Gaudet et al. Science 348, 1251-1255 (2015).
We then performed a multiplex immunoassay for 36 cytokines in both the air-pouch washes and the sera of injected mice. […] Thus, ADP-Hep but not HBP alone can potently activate innate immune responses in mice.
To confirm that 1-ADP-heptoses and 1-ADP-heptose-7-phosphates can stimulate innate immune responses in vivo, a mouse dorsal air pouch model established to assess acute inflammation was employed (Gaudet, et al. Science 348, 1251-1255 (2015).
Injection of 1-ADP-heptoses and 1-ADP-heptose-7-phosphates into the air pouch induces neutrophil recruitment into the pouch. […] 1-ADP-heptoses and 1-ADP-heptose-7-phosphates also increase the level of keratinocyte-derived chemokine (GRO-a/KC/CXCL1), IP-10 and MCP-1 in the sera.

TIFA = TIFA phosphorylation in 293T cells stably expressing EGFP-TIFA, anti-pT9-TIFA immunoblot; type: cell-based; conditions: 5 μM for 5 hours
Description: FIG. 1B. […] 293T cells stably expressing EGFP-TIFA were treated with ADP-heptose analogs (5 μM) for 5 hours, and analyzed by anti-pT9-TIFA immunoblot.

[2] = target: ALPK1 N-terminal domain (NTD) (Homo sapiens, UniProt Q96QP1); test: Direct binding to ALPK1 N-terminal domain
THP-1 and 293T cells [3] = test: Host cytosol entry, NF-kB activation and cytokine induction in THP-1 and 293T cells; conditions: for cytokines induction (such as interleukin-8): THP-1 and 293T cells, compound added on its own
[4] = tested on: MC38 colorectal adenocarcinoma cells; test: MC38 tumor growth, posttumor treatment with checkpoint blockade; type: in vivo, C57BL/6N mice; conditions: 0.5 mg/mouse intratumor combined with anti-PD-1 antibody 40 ug/mouse intraperitoneal, day 13-28
Description: FIG. 1F. […] C57BL/6N mice (n=6 mice per group) were injected subcutaneously with 2×10^5 MC38 colorectal adenocarcinoma cells on day 0. ADP-heptose (0.5 mg/mouse, intratumor injection) and anti-PD-1 antibody (40 ug/mouse, intraperitoneal injection) was administered on day 13, 16, 19, 22, 25, and 28 after tumor inoculation.

[5] = tested on: ovalbumin (OVA)-specific IgG; test: Adjuvant activity in vivo: OVA immunization, serum OVA-specific IgG by ELISA; conditions: C57BL/6N mice, intramuscular, 10 μg OVA mixed with 0.5 mg/mouse; after 21 days
Description: FIG. 1C. […] C57BL/6N mice (8 mice per group) were immunized intramuscularly with 10 μg OVA mixed with PBS, alum (2 mg/mouse), or ADP-heptose (0.5 mg/mouse). After 21 days, serum titers of OVA-specific IgG were measured by ELISA.

B16-OVA melanoma cells = test: B16-OVA tumor growth, posttumor intratumor treatment; type: in vivo, C57BL/6N mice; conditions: 0.5 mg/mouse intratumor injection on day 8, 11, 14, 17
Description: FIG. 1D and FIG. 1E. […] C57BL/6N mice (n=6 mice per group) were injected subcutaneously with 2×10^5 B16-OVA melanoma cells on day 0. ADP-heptose (0.5 mg/mouse) was administered on day 8, 11, 14, and 17 after tumor inoculation by intratumor injection. Tumor volume (D) and tumor weight (E).

NF-κB in 293T cells = test: NF-κB activation in 293T cells, luciferase reporter activity; type: cell-based
THP-1 and 293T cells [6] = tested on: THP-1 and 293T cells

Chain of alpha-kinase 1 (ALPK1) (Q96QP1 whole entry, the tested form may be a part): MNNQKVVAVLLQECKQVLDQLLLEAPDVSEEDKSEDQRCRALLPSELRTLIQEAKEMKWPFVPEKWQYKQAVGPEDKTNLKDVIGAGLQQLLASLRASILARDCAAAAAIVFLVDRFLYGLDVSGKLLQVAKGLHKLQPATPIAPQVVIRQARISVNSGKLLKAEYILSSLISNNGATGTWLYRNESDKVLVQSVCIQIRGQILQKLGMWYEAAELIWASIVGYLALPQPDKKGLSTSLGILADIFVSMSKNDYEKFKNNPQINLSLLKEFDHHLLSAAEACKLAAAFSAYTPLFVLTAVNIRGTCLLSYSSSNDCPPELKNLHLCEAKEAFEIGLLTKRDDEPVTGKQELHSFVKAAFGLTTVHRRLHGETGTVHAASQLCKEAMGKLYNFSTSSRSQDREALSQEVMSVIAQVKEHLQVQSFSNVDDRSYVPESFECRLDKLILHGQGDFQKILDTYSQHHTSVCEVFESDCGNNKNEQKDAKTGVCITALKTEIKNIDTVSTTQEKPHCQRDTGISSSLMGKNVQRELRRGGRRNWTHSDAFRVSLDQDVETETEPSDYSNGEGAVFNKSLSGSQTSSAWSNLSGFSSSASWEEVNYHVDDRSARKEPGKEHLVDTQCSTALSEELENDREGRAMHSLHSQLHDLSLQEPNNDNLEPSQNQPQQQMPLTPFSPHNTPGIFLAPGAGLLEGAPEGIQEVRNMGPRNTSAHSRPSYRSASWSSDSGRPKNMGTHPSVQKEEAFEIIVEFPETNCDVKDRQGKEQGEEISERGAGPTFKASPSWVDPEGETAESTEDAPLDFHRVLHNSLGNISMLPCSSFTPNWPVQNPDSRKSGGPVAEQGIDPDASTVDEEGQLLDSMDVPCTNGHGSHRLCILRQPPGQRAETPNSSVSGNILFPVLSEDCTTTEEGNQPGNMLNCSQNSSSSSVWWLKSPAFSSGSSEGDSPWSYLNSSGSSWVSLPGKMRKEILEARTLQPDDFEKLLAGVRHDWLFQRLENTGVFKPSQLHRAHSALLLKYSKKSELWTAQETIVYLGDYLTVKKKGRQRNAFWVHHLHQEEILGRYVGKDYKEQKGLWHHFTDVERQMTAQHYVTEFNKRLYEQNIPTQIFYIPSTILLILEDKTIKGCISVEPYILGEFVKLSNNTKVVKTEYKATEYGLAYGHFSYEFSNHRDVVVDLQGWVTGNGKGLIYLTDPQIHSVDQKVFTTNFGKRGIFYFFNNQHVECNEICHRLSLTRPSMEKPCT
Chain of ALPK1 N-terminal domain (NTD) (Q96QP1 1-473 limits assumed): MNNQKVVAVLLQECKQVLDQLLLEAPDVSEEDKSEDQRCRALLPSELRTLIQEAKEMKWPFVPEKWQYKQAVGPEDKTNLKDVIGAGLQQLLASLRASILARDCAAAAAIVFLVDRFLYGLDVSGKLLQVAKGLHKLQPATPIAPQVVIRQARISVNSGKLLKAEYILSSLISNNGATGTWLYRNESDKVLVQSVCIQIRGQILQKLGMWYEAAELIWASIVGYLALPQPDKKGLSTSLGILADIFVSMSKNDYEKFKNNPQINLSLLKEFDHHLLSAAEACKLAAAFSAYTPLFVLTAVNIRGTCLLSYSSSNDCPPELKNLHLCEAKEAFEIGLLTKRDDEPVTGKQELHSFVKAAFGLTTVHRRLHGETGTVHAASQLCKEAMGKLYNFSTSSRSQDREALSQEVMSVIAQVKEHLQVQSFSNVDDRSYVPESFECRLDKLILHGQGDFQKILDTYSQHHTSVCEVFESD

Q: For `Nc1ncnc2c1ncn2C1OC(COP(=O)(O)OP(=O)(O)OC2OC(C(O)COP(=O)(O)O)C(O)C(O)C2O)C(O)C1O` (stereo not shown) [ADP-Heptose 7-P], which ALPK1 activation (alpha-kinase 1 (ALPK1)) is on record?
A: The ALPK1 activation was “ALPK1 activation-competent”.

Q: Which “proinflammatory cytokines and chemokines in air pouches (IL-6, TNFα, IP-10, MCP-1/3, IFNγ, GM-CSF, MIP-1α and β, RANTES)” value [1] does the source give for `Nc1ncnc2c1ncn2[C@@H]1O[C@H](COP(=O)(O)OP(=O)(O)O[C@@H]2O[C@H]([C@@H](O)CO)[C@@H](O)[C@H](O)[C@@H]2O)[C@@H](O)[C@H]1O` [ADP-LD-Hep] here?
A: Its value is “highly elevated”.

Q: And the “neutrophil recruitment into the air pouch” value [1]?
A: Its value is “induced massive neutrophil recruitment into the pouch”.

Q: And the “level of GRO-α/KC/CXCL1, IP-10 and MCP-1 in the sera” value [1]?
A: Its value is “increased the level”.

Q: What does the source list for `Nc1ncnc2c1ncn2[C@@H]1O[C@H](COP(=O)(O)OP(=O)(O)O[C@@H]2O[C@H]([C@H](O)CO)[C@@H](O)[C@H](O)[C@@H]2O)[C@@H](O)[C@H]1O` [ADP-heptose, 1-ADP-β-D-manno-Heptose]?
A: TIFA phosphorylation (anti-pT9-TIFA immunoblot) (TIFA): induced TIFA phosphorylation; direct binding to ALPK1 N-terminal domain [2]: directly binds; inflammatory responses in mice after injection ([1]; mice, Alpk1-dependent): induces robust inflammatory responses in mice; cytokines induction (such as interleukin-8) (THP-1 and 293T cells [3]): cytokines induction; entry into host cytosol on its own (THP-1 and 293T cells [3]; host cells): could enter host cytosol on its own; MC38 tumor growth [4]: Inhibition of MC38 tumor growth; serum ovalbumin (OVA)-specific IgG production (adjuvant activity) [5]: exhibited adjuvant activity in vivo to elevate the serum ovalbumin (OVA)-specific IgG production; ALPK1 activation (alpha-kinase 1 (ALPK1)): stimulates the NTD-bound C-terminal kinase domain to phosphorylate TIFA and induce its oligomerization; B16-OVA tumor growth (tumor volume, tumor weight) (B16-OVA melanoma cells): Inhibition of B16-OVA tumor growth; NF-κB activation (luciferase reporter activity) (NF-κB in 293T cells): activated NF-κB in 293T cells in a dose-dependent manner

Q: `Nc1ccn(C2OC(COP(=O)(O)OP(=O)(O)OC3OC(C(O)CO)C(O)C(O)C3O)C(O)C2O)c(=O)n1` (stereo not shown) [CDP-heptose] was tested. Which “TIFA phosphorylation (anti-pT9-TIFA immunoblot)” value (from here on “TIFA phosphorylation”) (TIFA) did it give?
A: The value was “induce TIFA phosphorylation”.

Q: And the “NF-κB activation (luciferase reporter activity)” value (NF-κB in 293T cells)?
A: Its value is “activated NF-κB in 293T cells in a dose-dependent manner”.

Q: What does the source list for `Nc1nc2c(ncn2[C@@H]2O[C@H](COP(=O)(O)OP(=O)(O)O[C@H]3O[C@H]([C@H](O)CO)[C@@H](O)[C@H](O)[C@@H]3O)[C@@H](O)[C@H]2O)c(=O)[nH]1` [GDP-heptose]?
A: TIFA phosphorylation (anti-pT9-TIFA immunoblot) (TIFA): induce TIFA phosphorylation; NF-κB activation (luciferase reporter activity) (NF-κB in 293T cells): activated NF-κB in 293T cells in a dose-dependent manner

Q: Which “entry into host cytosol on its own” value (THP-1 and 293T cells [6]) does the source give for `O=P(O)(O)OC[C@@H](O)[C@H]1O[C@@H](OP(=O)(O)O)[C@@H](O)[C@@H](O)[C@@H]1O` [HBP, D-glycero-β-D-manno Heptose 1,7-bisphosphate, reference compound] here?
A: Its value is “cell-impermeable”.

Q: And the “proinflammatory cytokines and chemokines in air pouches (IL-6, TNFα, IP-10, MCP-1/3, IFNγ, GM-CSF, MIP-1α and β, RANTES)” value [1]?
A: Its value is “did not affect local and systemic productions”.

Q: And the “neutrophil recruitment into the air pouch” value [1]?
A: The value was “failed to increase the number of air-pouch neutrophils”.

Q: And the “level of GRO-α/KC/CXCL1, IP-10 and MCP-1 in the sera” value [1]?
A: Its value is “did not affect local and systemic productions”.

Q: What about the “cytokines induction (such as interleukin-8)” value (THP-1 and 293T cells [3]) of the same molecule?
A: The value was “not”.

Q: And the NF-κB activation (THP-1 and 293T cells [3]; transfected into host cells)?
A: Its NF-κB activation is “NF-κB activation observed”.

Q: `O=c1ccn(C2OC(COP(=O)(O)OP(=O)(O)OC3OC(C(O)CO)C(O)C(O)C3O)C(O)C2O)c(=O)[nH]1` (stereo not shown) [UDP-heptose] was tested. Which “TIFA phosphorylation” value (TIFA) did it give?
A: Its value is “induce TIFA phosphorylation”.

Q: What about the “NF-κB activation (luciferase reporter activity)” value (NF-κB in 293T cells) of the same molecule?
A: The value was “activated NF-κB in 293T cells in a dose-dependent manner”.

Q: With `Nc1ncnc2c1ncn2C1CC(O)C(COP(=O)(O)OP(=O)(O)OC2OC(C(O)CO)C(O)C(O)C2O)O1` (stereo not shown) [dADP-heptose] as the molecule, how does the “TIFA phosphorylation” value (TIFA) read?
A: Its value is “induce TIFA phosphorylation”.

Q: What about the “NF-κB activation (luciferase reporter activity)” value (NF-κB in 293T cells) of the same molecule?
A: The value was “activated NF-κB in 293T cells in a dose-dependent manner”.

Q: How did the “TIFA phosphorylation” value (TIFA) turn out when `Nc1ccn(C2CC(O)C(COP(=O)(O)OP(=O)(O)OC3OC(C(O)CO)C(O)C(O)C3O)O2)c(=O)n1` (stereo not shown) [dCDP-heptose] was run?
A: Its value is “induce TIFA phosphorylation”.

Q: And the “NF-κB activation (luciferase reporter activity)” value (NF-κB in 293T cells)?
A: Its value is “activated NF-κB in 293T cells in a dose-dependent manner”.

Q: With `Nc1nc2c(ncn2C2CC(O)C(COP(=O)(O)OP(=O)(O)OC3OC(C(O)CO)C(O)C(O)C3O)O2)c(=O)[nH]1` (stereo not shown) [dGDP-heptose] as the molecule, how does the “TIFA phosphorylation” value (TIFA) read?
A: Its value is “induce TIFA phosphorylation”.

Q: What about the “NF-κB activation (luciferase reporter activity)” value (NF-κB in 293T cells) of the same molecule?
A: The value was “activated NF-κB in 293T cells in a dose-dependent manner”.

Q: What does the source list for `Cc1cn(C2CC(O)C(COP(=O)(O)OP(=O)(O)OC3OC(C(O)CO)C(O)C(O)C3O)O2)c(=O)[nH]c1=O` (stereo not shown) [dTDP-heptose]?
A: TIFA phosphorylation (anti-pT9-TIFA immunoblot) (TIFA): induce TIFA phosphorylation; NF-κB activation (luciferase reporter activity) (NF-κB in 293T cells): activated NF-κB in 293T cells in a dose-dependent manner
